Experimental data reported in patent publication US20250296938A1, “Compounds that Interact with the Ras Superfamily for the Treatment of Cancers, Inflammatory Diseases, Rasopathies, and Fibrotic Disease” (SHY Therapeutics, LLC, priority 2018, published 2025).

Test system: KRas G12C mutant
Assay: Ras GTP binding domain inhibition assay (Cy3-GTP/Cy5-GTP competition)
Parameters: species or system human
Conditions: 20 μM; with SOS (Table 7A)
Method in brief: (§1)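 Ni-plate immobilised His-Ras, overnight 4 °C; cpd 20 μM (or dilution series for IC50), 1% DMSO, 3 h RT; optional His-Sos […] last hour; Cy3- or Cy5-GTP 100 nM, 45 min RT; 3× wash; bound fluorescence read.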

KRas G12C mutant + SOS: % inh. | Structure (SMILES)
C (51-75% inhibition) | Cc1c(-c2ccn(C)n2)sc2nc(-c3nccn3C)nc(NCCCC(=O)N(C)C)c12 [drawing 917]
C (51-75% inhibition) | Cc1c(-c2ccn(C)n2)sc2nc(-c3nccn3C)nc(NCCOC(=O)N(C)C)c12 [drawing 918]
D (76-100% inhibition) | CO[C@H]1CC[C@@H](Nc2nc(-c3nccn3C)nc3sc(-c4ccn(C(C)C)n4)c(C)c23)C1 [drawing 919]
D (76-100% inhibition) | CO[C@H]1C[C@@H](Nc2nc(-c3nccn3C)nc3sc(C(=O)NC(C)C)c(-c4ccccc4)c23)C1 [drawing 920]
D (76-100% inhibition) | COCCNC(=O)c1sc2nc(-c3nccn3C)nc(N[C@H]3C[C@@H](OC)C3)c2c1-c1ccccc1 [drawing 921]
C (51-75% inhibition) | CO[C@H]1C[C@@H](Nc2nc(-c3nccn3C)nc3sc(C(=O)N4CCOCC4)c(-c4ccccc4)c23)C1 [drawing 922]
C (51-75% inhibition) | COC1CCN(C(=O)c2sc3nc(-c4nccn4C)nc(N[C@H]4C[C@@H](OC)C4)c3c2-c2ccccc2)C1 (stereo partly shown) [drawing 923]
D (76-100% inhibition) | CO[C@H]1CC[C@@H](Nc2nc(-c3nccn3C)nc3sc(C(=O)NC(C)C)c(-c4ccccc4)c23)C1 [drawing 924]

Same assay, conditions: 20 μM; without SOS (Table 7A)

KRas G12C mutant: % inh. | Structure (SMILES)
C (51-75% inhibition) | Cc1c(-c2ccn(C)n2)sc2nc(-c3nccn3C)nc(NCCCC(=O)N(C)C)c12 [drawing 917]
D (76-100% inhibition) | Cc1c(-c2ccn(C)n2)sc2nc(-c3nccn3C)nc(NCCOC(=O)N(C)C)c12 [drawing 918]
C (51-75% inhibition) | CO[C@H]1CC[C@@H](Nc2nc(-c3nccn3C)nc3sc(-c4ccn(C(C)C)n4)c(C)c23)C1 [drawing 919]
D (76-100% inhibition) | CO[C@H]1C[C@@H](Nc2nc(-c3nccn3C)nc3sc(C(=O)NC(C)C)c(-c4ccccc4)c23)C1 [drawing 920]
D (76-100% inhibition) | COCCNC(=O)c1sc2nc(-c3nccn3C)nc(N[C@H]3C[C@@H](OC)C3)c2c1-c1ccccc1 [drawing 921]
D (76-100% inhibition) | CO[C@H]1C[C@@H](Nc2nc(-c3nccn3C)nc3sc(C(=O)N4CCOCC4)c(-c4ccccc4)c23)C1 [drawing 922]
C (51-75% inhibition) | COC1CCN(C(=O)c2sc3nc(-c4nccn4C)nc(N[C@H]4C[C@@H](OC)C4)c3c2-c2ccccc2)C1 (stereo partly shown) [drawing 923]
C (51-75% inhibition) | CO[C@H]1CC[C@@H](Nc2nc(-c3nccn3C)nc3sc(C(=O)NC(C)C)c(-c4ccccc4)c23)C1 [drawing 924]

Test system: KRas Q61H mutant
Assay: as above
Parameters: species or system human
Conditions: 20 μM; with SOS (Table 7A)
Method in brief: as §1

KRas Q61H mutant + SOS: % inh. | Structure (SMILES)
C (51-75% inhibition) | Cc1c(-c2ccn(C)n2)sc2nc(-c3nccn3C)nc(NCCCC(=O)N(C)C)c12 [drawing 917]
D (76-100% inhibition) | Cc1c(-c2ccn(C)n2)sc2nc(-c3nccn3C)nc(NCCOC(=O)N(C)C)c12 [drawing 918]
D (76-100% inhibition) | CO[C@H]1CC[C@@H](Nc2nc(-c3nccn3C)nc3sc(-c4ccn(C(C)C)n4)c(C)c23)C1 [drawing 919]
D (76-100% inhibition) | CO[C@H]1C[C@@H](Nc2nc(-c3nccn3C)nc3sc(C(=O)NC(C)C)c(-c4ccccc4)c23)C1 [drawing 920]
D (76-100% inhibition) | COCCNC(=O)c1sc2nc(-c3nccn3C)nc(N[C@H]3C[C@@H](OC)C3)c2c1-c1ccccc1 [drawing 921]
C (51-75% inhibition) | CO[C@H]1C[C@@H](Nc2nc(-c3nccn3C)nc3sc(C(=O)N4CCOCC4)c(-c4ccccc4)c23)C1 [drawing 922]
C (51-75% inhibition) | COC1CCN(C(=O)c2sc3nc(-c4nccn4C)nc(N[C@H]4C[C@@H](OC)C4)c3c2-c2ccccc2)C1 (stereo partly shown) [drawing 923]
D (76-100% inhibition) | CO[C@H]1CC[C@@H](Nc2nc(-c3nccn3C)nc3sc(C(=O)NC(C)C)c(-c4ccccc4)c23)C1 [drawing 924]

Same assay, conditions: 20 μM; without SOS (Table 7A)

KRas Q61H mutant: % inh. | Structure (SMILES)
D (76-100% inhibition) | Cc1c(-c2ccn(C)n2)sc2nc(-c3nccn3C)nc(NCCCC(=O)N(C)C)c12 [drawing 917]
C (51-75% inhibition) | Cc1c(-c2ccn(C)n2)sc2nc(-c3nccn3C)nc(NCCOC(=O)N(C)C)c12 [drawing 918]
D (76-100% inhibition) | CO[C@H]1CC[C@@H](Nc2nc(-c3nccn3C)nc3sc(-c4ccn(C(C)C)n4)c(C)c23)C1 [drawing 919]
D (76-100% inhibition) | CO[C@H]1C[C@@H](Nc2nc(-c3nccn3C)nc3sc(C(=O)NC(C)C)c(-c4ccccc4)c23)C1 [drawing 920]
D (76-100% inhibition) | COCCNC(=O)c1sc2nc(-c3nccn3C)nc(N[C@H]3C[C@@H](OC)C3)c2c1-c1ccccc1 [drawing 921]
D (76-100% inhibition) | CO[C@H]1C[C@@H](Nc2nc(-c3nccn3C)nc3sc(C(=O)N4CCOCC4)c(-c4ccccc4)c23)C1 [drawing 922]
C (51-75% inhibition) | COC1CCN(C(=O)c2sc3nc(-c4nccn4C)nc(N[C@H]4C[C@@H](OC)C4)c3c2-c2ccccc2)C1 (stereo partly shown) [drawing 923]
D (76-100% inhibition) | CO[C@H]1CC[C@@H](Nc2nc(-c3nccn3C)nc3sc(C(=O)NC(C)C)c(-c4ccccc4)c23)C1 [drawing 924]

Test system: KRas wild type
Assay: as above
Parameters: species or system human
Conditions: 20 μM; with SOS (Table 7A)
Method in brief: as §1

KRas wild type + SOS: % inh. | Structure (SMILES)
C (51-75% inhibition) | Cc1c(-c2ccn(C)n2)sc2nc(-c3nccn3C)nc(NCCCC(=O)N(C)C)c12 [drawing 917]
D (76-100% inhibition) | Cc1c(-c2ccn(C)n2)sc2nc(-c3nccn3C)nc(NCCOC(=O)N(C)C)c12 [drawing 918]
D (76-100% inhibition) | CO[C@H]1CC[C@@H](Nc2nc(-c3nccn3C)nc3sc(-c4ccn(C(C)C)n4)c(C)c23)C1 [drawing 919]
D (76-100% inhibition) | CO[C@H]1C[C@@H](Nc2nc(-c3nccn3C)nc3sc(C(=O)NC(C)C)c(-c4ccccc4)c23)C1 [drawing 920]
C (51-75% inhibition) | COCCNC(=O)c1sc2nc(-c3nccn3C)nc(N[C@H]3C[C@@H](OC)C3)c2c1-c1ccccc1 [drawing 921]
C (51-75% inhibition) | CO[C@H]1C[C@@H](Nc2nc(-c3nccn3C)nc3sc(C(=O)N4CCOCC4)c(-c4ccccc4)c23)C1 [drawing 922]
C (51-75% inhibition) | COC1CCN(C(=O)c2sc3nc(-c4nccn4C)nc(N[C@H]4C[C@@H](OC)C4)c3c2-c2ccccc2)C1 (stereo partly shown) [drawing 923]
D (76-100% inhibition) | CO[C@H]1CC[C@@H](Nc2nc(-c3nccn3C)nc3sc(C(=O)NC(C)C)c(-c4ccccc4)c23)C1 [drawing 924]

Same assay, conditions: 20 μM; without SOS (Table 7A)

KRas wild type % inh. | Structure (SMILES)
D (76-100% inhibition) | Cc1c(-c2ccn(C)n2)sc2nc(-c3nccn3C)nc(NCCCC(=O)N(C)C)c12 [drawing 917]
D (76-100% inhibition) | Cc1c(-c2ccn(C)n2)sc2nc(-c3nccn3C)nc(NCCOC(=O)N(C)C)c12 [drawing 918]
D (76-100% inhibition) | CO[C@H]1CC[C@@H](Nc2nc(-c3nccn3C)nc3sc(-c4ccn(C(C)C)n4)c(C)c23)C1 [drawing 919]
C (51-75% inhibition) | CO[C@H]1C[C@@H](Nc2nc(-c3nccn3C)nc3sc(C(=O)NC(C)C)c(-c4ccccc4)c23)C1 [drawing 920]
D (76-100% inhibition) | COCCNC(=O)c1sc2nc(-c3nccn3C)nc(N[C@H]3C[C@@H](OC)C3)c2c1-c1ccccc1 [drawing 921]
C (51-75% inhibition) | CO[C@H]1C[C@@H](Nc2nc(-c3nccn3C)nc3sc(C(=O)N4CCOCC4)c(-c4ccccc4)c23)C1 [drawing 922]
C (51-75% inhibition) | COC1CCN(C(=O)c2sc3nc(-c4nccn4C)nc(N[C@H]4C[C@@H](OC)C4)c3c2-c2ccccc2)C1 (stereo partly shown) [drawing 923]
D (76-100% inhibition) | CO[C@H]1CC[C@@H](Nc2nc(-c3nccn3C)nc3sc(C(=O)NC(C)C)c(-c4ccccc4)c23)C1 [drawing 924]

Target: T1, KRas G12D mutant (Homo sapiens, UniProt P01116, G12D)
T1 construct: fused on or other part: His tag, used for capture on nickel-coated plates
Assay: as above
Conditions: 20 μM; with SOS (Table 7A); read-out: KRas G12D mutant + SOS: % inh.
Method in brief: as §1

inhibition at 20 µM | Structure (SMILES)
76 to 100% | Cc1c(-c2ccn(C)n2)sc2nc(-c3nccn3C)nc(NCCCC(=O)N(C)C)c12 [drawing 917]
76 to 100% | Cc1c(-c2ccn(C)n2)sc2nc(-c3nccn3C)nc(NCCOC(=O)N(C)C)c12 [drawing 918]
51 to 75% | CO[C@H]1CC[C@@H](Nc2nc(-c3nccn3C)nc3sc(-c4ccn(C(C)C)n4)c(C)c23)C1 [drawing 919]
51 to 75% | CO[C@H]1C[C@@H](Nc2nc(-c3nccn3C)nc3sc(C(=O)NC(C)C)c(-c4ccccc4)c23)C1 [drawing 920]
51 to 75% | COCCNC(=O)c1sc2nc(-c3nccn3C)nc(N[C@H]3C[C@@H](OC)C3)c2c1-c1ccccc1 [drawing 921]
51 to 75% | CO[C@H]1C[C@@H](Nc2nc(-c3nccn3C)nc3sc(C(=O)N4CCOCC4)c(-c4ccccc4)c23)C1 [drawing 922]
51 to 75% | COC1CCN(C(=O)c2sc3nc(-c4nccn4C)nc(N[C@H]4C[C@@H](OC)C4)c3c2-c2ccccc2)C1 (stereo partly shown) [drawing 923]
76 to 100% | CO[C@H]1CC[C@@H](Nc2nc(-c3nccn3C)nc3sc(C(=O)NC(C)C)c(-c4ccccc4)c23)C1 [drawing 924]

Same assay, conditions: 20 μM; without SOS (Table 7A); read-out: KRas G12D mutant: % inh.

inhibition at 20 µM | Structure (SMILES)
51 to 75% | Cc1c(-c2ccn(C)n2)sc2nc(-c3nccn3C)nc(NCCCC(=O)N(C)C)c12 [drawing 917]
76 to 100% | Cc1c(-c2ccn(C)n2)sc2nc(-c3nccn3C)nc(NCCOC(=O)N(C)C)c12 [drawing 918]
51 to 75% | CO[C@H]1CC[C@@H](Nc2nc(-c3nccn3C)nc3sc(-c4ccn(C(C)C)n4)c(C)c23)C1 [drawing 919]
51 to 75% | CO[C@H]1C[C@@H](Nc2nc(-c3nccn3C)nc3sc(C(=O)NC(C)C)c(-c4ccccc4)c23)C1 [drawing 920]
51 to 75% | COCCNC(=O)c1sc2nc(-c3nccn3C)nc(N[C@H]3C[C@@H](OC)C3)c2c1-c1ccccc1 [drawing 921]
51 to 75% | CO[C@H]1C[C@@H](Nc2nc(-c3nccn3C)nc3sc(C(=O)N4CCOCC4)c(-c4ccccc4)c23)C1 [drawing 922]
51 to 75% | COC1CCN(C(=O)c2sc3nc(-c4nccn4C)nc(N[C@H]4C[C@@H](OC)C4)c3c2-c2ccccc2)C1 (stereo partly shown) [drawing 923]
76 to 100% | CO[C@H]1CC[C@@H](Nc2nc(-c3nccn3C)nc3sc(C(=O)NC(C)C)c(-c4ccccc4)c23)C1 [drawing 924]
